36 compounds from US20090181989A1, “Purine Compunds as HSP90 Protein Inhibitors for the Treatment of Cancer” (VERNALIS ( R & D) LTD., priority 2005, published 2009) can be followed below.

This assay concerns the target T1, human full-length HSP90 (Homo sapiens, UniProt P08238).
T1 construct: E. coli expressed human full-length HSP90 protein; made in house; host or cells: E. coli
The assay is described as follows: Fluorescence polarization assay (competitive displacement of fluorescein-labelled probe VER00051001-FAM from HSP90). The class given is binding. The settings on record: activity range in the fluorescence polarization assay; E. coli expressed human full-length HSP90 200 nM, probe 80 nM. The source says:
Fluorescence Polarization Assay
Fluorescence polarization {also known as fluorescence anisotropy} measures the rotation of a fluorescing species in solution, where the larger molecule the more polarized the fluorescence emission. When the fluorophore is excited with polarized light, the emitted light is also polarized. The molecular size is proportional to the polarization of the fluorescence emission.
The fluoroscein-labelled probe-VER00051001-FAM-
binds to HSP90 {full-length human, full-length yeast or N-terminal domain HSP90} and the anisotropy {rotation of the probe:protein complex} is measured.
Test compound is added to the assay plate, left to equilibrate and the anisotropy measured again. Any change in anisotropy is due to competitive binding of compound to HSP90, thereby releasing probe.
Chemicals are of the highest purity commercially available and all aqueous solutions are made up in AR water. • 1) Costar 96-well black assay plate #3915 • 2) Assay buffer of (a) 100 mM Tris pH7.4; (b) 20 mM KCl; (c) 6 mM MgCl2. Stored at room temperature. • 3) BSA (bovine serum albumen) 10 mg/ml (New England Biolabs # B9001S) • 4) 20 mM probe in 100% DMSO stock concentration. Stored in the dark at RT. Working concentration is 200 nM diluted in AR water and stored at 4° C. Final concentration in assay 80 nM. • 5) E. coli expressed human full-length HSP90 protein, purified >95% (see, e.g., Panaretou et al., 1998) and stored in 50 μL aliquots at −80° C.
• 1) Add 100 μl 1× buffer to wells 11A and 12A(═FPBLNK) • 2) Prepare assay mix—all reagents are kept on ice with a lid on the bucket as the probe is light-sensitive.
• 3) Aliquot 100 μl assay mix to all other wells • 4) Seal plate and leave in dark at room temp for 20 minutes to equilibrate Compound Dilution Plate—1×3 dilution series • 1) In a clear 96-well v-bottom plate—{# VWR 007/008/257} add 10 μl 100% DMSO to wells B1 to H11 • 2) To wells A1 to A11 add 17.5 μl 100% DMSO • 3) Add 2.5 μl cpd to A1. This gives 2.5 mM {50×} stock cpd—assuming cpds 20 mM. • 4) Repeat for wells A2 to A10. Control in columns 11 and 12. • 5) Transfer 5 μl from row A to row B- not column 12. Mix well. • 6) Transfer 5 μl from row B to row C. […] In column 11 {provides standard curve} only add compound B11-H11. Add 2 μl of 100 mM standard cpd to wells B12-H12 {is positive control} • 13) The Z′ factor is calculated from zero controls and positive wells. It typically gives a value of 0.7-0.9.
The compounds tested in the above assay were assigned to one of two activity ranges, namely A=<10 μM; B=>10 μM, and those assignments are reported above.

pIC50: −log10 of the molar value.

T1 sequence (P08238 whole entry): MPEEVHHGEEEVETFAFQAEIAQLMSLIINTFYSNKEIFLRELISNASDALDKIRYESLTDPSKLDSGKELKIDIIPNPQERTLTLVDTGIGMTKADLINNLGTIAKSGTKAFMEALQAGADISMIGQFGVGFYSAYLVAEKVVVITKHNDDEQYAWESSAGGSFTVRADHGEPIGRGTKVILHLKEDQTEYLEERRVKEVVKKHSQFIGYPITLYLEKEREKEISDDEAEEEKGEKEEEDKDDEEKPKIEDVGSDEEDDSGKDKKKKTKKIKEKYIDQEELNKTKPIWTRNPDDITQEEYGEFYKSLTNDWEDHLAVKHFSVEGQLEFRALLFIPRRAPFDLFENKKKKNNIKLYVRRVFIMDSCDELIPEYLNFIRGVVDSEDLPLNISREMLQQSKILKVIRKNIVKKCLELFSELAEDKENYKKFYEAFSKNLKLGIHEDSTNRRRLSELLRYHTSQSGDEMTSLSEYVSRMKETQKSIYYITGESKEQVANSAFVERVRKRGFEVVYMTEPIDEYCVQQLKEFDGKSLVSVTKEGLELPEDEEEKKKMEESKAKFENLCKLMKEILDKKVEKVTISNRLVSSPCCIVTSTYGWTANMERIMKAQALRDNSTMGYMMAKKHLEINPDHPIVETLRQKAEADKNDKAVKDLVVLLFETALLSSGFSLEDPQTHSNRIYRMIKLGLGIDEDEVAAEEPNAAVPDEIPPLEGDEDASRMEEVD

In turn, `Clc1ccc(-c2nc(Cl)nc3[nH]cnc23)c(Cl)c1` [Example 1, 2-Chloro-6-(2,4-dichloro-phenyl)-9H-purine] had a pIC50 greater than 5.00. The compound `Clc1nc(-c2cc(OCc3ccccc3)c(Cl)cc2Cl)c2nc[nH]c2n1` [Example 2, 6-(5-Benzyloxy-2,4-dichloro-phenyl)-2-chloro-9H-purine] showed a pIC50 greater than 5.00.

For `Cc1ccc(-c2nc(Cl)nc3[nH]cnc23)c(C)c1` [Example 3], the pIC50 was greater than 5.00. The same measure for `Cc1ccc(-c2nc(Cl)nc3[nH]cnc23)c2ccccc12` [Example 4]: less than 5.00; for `Clc1nc(-c2ccc3c(c2)CCO3)c2nc[nH]c2n1` [Example 5]: less than 5.00; for `N#Cc1ccc(-c2nc(Cl)nc3[nH]cnc23)cc1` [Example 6]: greater than 5.00.

The compound `Cc1ccc(-c2nc(Cl)nc3[nH]cnc23)c(Cl)c1` [Example 8] gave a pIC50 greater than 5.00.

In turn, `Cc1cc(Cl)ccc1-c1nc(Cl)nc2[nH]cnc12` [Example 9] showed a pIC50 greater than 5.00.

Compound `Cc1cc(F)ccc1-c1nc(Cl)nc2[nH]cnc12` [Example 10] had a pIC50 greater than 5.00.

In turn, `Clc1nc(-c2ccccc2)c2nc[nH]c2n1` [Example 11] gave a pIC50 greater than 5.00.

Compound `CSc1nc(-c2cc(OCc3ccccc3)c(Cl)cc2Cl)c2nc[nH]c2n1` [Example 12, 6-(5-benzyloxy-2,4-dichloro-phenyl)-2-methylsulfanyl-9H-purine] gave a pIC50 greater than 5.00.

On to `CSc1nc(-c2ccc(C#N)cc2)c2nc[nH]c2n1` [Example 13, 6-(4-cyano-phenyl)-2-methylsulfanyl-9H-purine], for which the pIC50 was greater than 5.00. The same measure for `CSc1nc(-c2ccc(Cl)cc2Cl)c2nc[nH]c2n1` [Example 14, 6-(2,4-dichloro-phenyl)-2-methylsulfanyl-9H-purine]: greater than 5.00; for `CSc1nc(-c2ccc(F)cc2C)c2nc[nH]c2n1` [Example 15, 6-(2-methyl-4-fluoro-phenyl)-2-methylsulfanyl-9H-purine]: greater than 5.00; for `CCNC(=O)CSc1nc(-c2ccc(Cl)cc2Cl)c2nc[nH]c2n1` [Example 16]: greater than 5.00. Turning to `CSc1nc(-c2ccc3ccccc3c2)c2nc[nH]c2n1` [Example 17], the pIC50 is less than 5.00. The same measure for `Clc1ccc(-c2nc(Sc3nc[nH]n3)nc3[nH]cnc23)c(Cl)c1` [Example 18]: greater than 5.00; for `CSc1nc(-c2ccc(Cl)cc2C)c2nc[nH]c2n1` [Example 19]: greater than 5.00; for `CCOC(=O)CSc1nc(-c2ccc(Cl)cc2Cl)c2nc[nH]c2n1` [Example 20]: greater than 5.00. As for `CCNC(=O)C(C)(C)Sc1nc(-c2ccc(Cl)cc2Cl)c2nc[nH]c2n1` [Example 21], the figure is less than 5.00; as for `CN(C)CCSc1nc(-c2ccc(Cl)cc2Cl)c2nc[nH]c2n1` [Example 22], greater than 5.00.

Take `COc1nc(-c2ccc(Cl)cc2Cl)c2nc[nH]c2n1` [Example 23, 6-(2,4-Dichloro-phenyl)-2-methoxy-9H-purine]: the pIC50 was greater than 5.00. The same measure for `CCN(CC)Cc1ccc(COc2cc(-c3nc(Cl)nc4[nH]cnc34)c(Cl)cc2Cl)cc1` [Example 24, {4-[2,4-Dichloro-5-(2-chloro-9H-purin-6-yl)-phenoxymethyl]-benzyl}-diethyl-amine]: greater than 5.00; for `CS(=O)(=O)c1nc(-c2ccc(Cl)cc2Cl)c2nc[nH]c2n1` [Example 25, 6-(2,4-Dichloro-phenyl)-2-methanesulfonyl-7H-purine]: less than 5.00; for `C[S+]([O-])c1nc(-c2ccc(Cl)cc2Cl)c2nc[nH]c2n1` (stereo not drawn) [Example 26, 6-(2,4-Dichloro-phenyl)-2-methanesulfinyl-7H-purine]: less than 5.00.

`Cc1cc(Cl)c(-c2nc(Cl)nc3[nH]cnc23)cc1O` [Example 27, 4-Chloro-5-(2-chloro-9H-puriny-6-yl)-2-methyl-phenol] gave a pIC50 greater than 5.00. The compound `CCN(CC)CCOc1cc(-c2nc(Cl)nc3[nH]cnc23)c(Cl)cc1C` [Example 28, {2-[4-Chloro-5-(2-chloro-9H-purin-6-yl)-2-methyl-phenoxy]-ethyl}-diethyl-amine] had a pIC50 greater than 5.00. The compound `CCN(CC)CCOc1cc(-c2nc(SC)nc3[nH]cnc23)c(Cl)cc1C` [Example 29, {2-[4-Chloro-2-methyl-5-(2-methylsulfanyl-9H-purin-6-yl)-phenoxy]-ethyl}-diethyl-amine] showed a pIC50 greater than 5.00. `CCNC(=O)CSc1nc(-c2cc(OCCN(CC)CC)c(C)cc2Cl)c2nc[nH]c2n1` [Example 30, 2-{6-[2-Chloro-5-(2-diethlamino-ethoxy)-4-methyl-phenyl]-9H-purin-2-ylsulfanyl}-N-ethyl Acetamide] showed a pIC50 greater than 5.00. As for `CSc1nc(-c2ccc(C)cc2C)c2nc(Cl)[nH]c2n1` [Example 31, 8-Chloro-6-(2,4-dimethyl-phenyl)-2-methylsulfanyl-9H-purine], the figure is less than 5.00; as for `CSc1nc(-c2ccc(C)cc2C)c2nc(C)[nH]c2n1` [Example 32, 6-(2,4-Dimethyl-phenyl)-8-methyl-2-methylsulfanyl-9H-purine], less than 5.00; as for `CSc1nc(-c2ccc(C)cc2C)c2nc(C#N)[nH]c2n1` [Example 33, 6-(2,4-Dimethyl-phenyl)-2-methylsulfanyl-9H-purine-8-carbonitrile], less than 5.00. `CN(C)CCCOc1cc(-c2nc(Cl)nc3[nH]cnc23)c(Cl)cc1Cl` [Example 34, {3-[2,4-Dichloro-5-(2-chloro-9H-purin-6-yl)-phenoxy]-propyl}-dimethyl-amine] gave a pIC50 greater than 5.00. As for `CCN(CC)CCOc1cc(-c2nc(Cl)nc3[nH]cnc23)c(Cl)cc1Cl` [Example 35, {2-[2,4-Dichloro-5-(2-chloro-9H-purin-6-yl)-phenoxy]-ethyl}-diethyl-amine], the figure is greater than 5.00; as for `Clc1nc(-c2cc(OCCN3CCCC3)c(Cl)cc2Cl)c2nc[nH]c2n1` [Example 36, 2-Chloro-6-[2,4-dichloro-5-(2-pyrrolidin-1-yl-ethoxy)-phenyl]-9H-purine], greater than 5.00; as for `O=C1CCCN1CCOc1cc(-c2nc(Cl)nc3[nH]cnc23)c(Cl)cc1Cl` [Example 37, 1-{2-[2,4-Dichloro-5-(2-chloro-9H-purin-6-yl)-phenoxy]-ethyl}-pyrrolidin-2-one], greater than 5.00.
